This is an account of results in patent US20250064867A1, “METHOD FOR PREVENTING OR TREATING MUSCLE DISEASE” (KOREA RESEARCH INSTITUTE OF BIOSCIENCE AND BIOTECHNOLOGY, priority 2018, published 2025).

Structures are written as SMILES.

In this data set the test system is C2C12 myoblasts. The experiment in a line: WST-1 cytotoxicity assay on C2C12. To be noted: 24 hours. Type of data set: cell-based, mouse. The protocol:
First, mouse skeletal muscle C2C12 cell line (CRL-1772, ATCC, Manassas, VA, USA) was purchased and used. To assess the cytotoxicity of dexamethasone and HB05P on C2C12, a WST-1 assay (Cell Proliferation Reagent WST-1, 5015944001, Roche, Basel, Switzerland) was performed. Myoblasts (C2C12) were dispensed at a density of 2.0×10^4 cells/well into 96-well plates (Corning® 96-well Clear Polystyrene Microplates, 3598, Corning, Glendale, AZ, USA) and cultured at 37° C. in 5% CO2 conditions for 24 hours. The cultured cells were then treated with varying concentrations of dexamethasone (0, 250, 500, 750, 1000 μM) and HB05P (0, 1.0×10^3, 1.0×10^4, 1.0×10^5, 1.0×10^6, 1.0×10^7 cells/well). After 24 hours of incubation, cell viability was measured using a VersaMax Microplate Reader (Molecular devices, San Jose, CA, USA).

Turning to `C[C@@H]1C[C@H]2[C@@H]3CCC4=CC(=O)C=C[C@]4(C)[C@@]3(F)[C@@H](O)C[C@]2(C)[C@@]1(O)C(=O)CO` [dexamethasone], the “cell viability, trend over concentration” value (0, 250, 500, 750, 1000 μM) is reported as “concentration-dependent decrease”. The cell viability (250 μM, untreated = 100%) was 66.6%.
